# Read-outs that look alike come from different tables or passages of the source.
# Key:
# [1] = tested on: Leishmania donovani promastigotes (clinical isolate); assay: in vitro antipromastigote activity test (AlamarBlue/resazurin); format: cell-based; settings: for IC50: Leishmania donovani
# Procedure: The antipromastigote activities of the synthesized compounds and the existing antileishmanial drugs (miltefosine and amphotericin B deoxycholate) were assessed using the clinical isolate of the Leishmania donovani strain, which is known to cause VL worldwide. The soluble, stable and non-toxic fluorescence dye, AlamarBlue® (resazurin) (Trek Diagnostic Systems, Inc., Cleveland, OH, USA) was used to quantitatively determine the viability of Leishmania donovani and compute the IC50 value of target compounds and the reference drugs. Only metabolically active cells can reduce resazurin and convert into fluorescent resorufin. Thus, the fluorescent intensity of resorufin is directly correlated to the number of viable Leishmania donovani cells. […] Inspired by its promising antileishmanial outcome, (E)-2-(4-nitrostyryl)-3-phenylquinazolin-4(3H)-one (6) was subjected to molecular docking study by fitting it in Lm-PTR1 active site to gain an insight about the types of interactions between the simulated enzyme and itself.
# RPMI-1640, 10% heat-inactivated fetal calf serum (HIFCS), 1% penicillin–streptomycin, and 1% L-glutamine were supplied to make a complete culture medium. The Leishmania donovani isolate was grown first on Novy-MacNeal-Nicolle (NNN) medium and then in tissue-culture flasks containing RPMI 1640 medium supplemented with 10% HIFCS and 1% 100 IU penicillin/mL-100 µg/mL streptomycin solution at 22 ℃ for promastigotes.
# Stock solutions of 10 mg/mL of the synthesized compounds were prepared by dissolving each compound in DMSO for the antileishmanial activity testing. Stock solutions were diluted using complete RPMI to obtain aliquots of 10 µg/mL. Then, three-fold serial dilution with complete RPMI gave the final six working concentrations (10, 3.33, 1.11, 0.37, 0.12, and 0.04 µg/mL) of each of the synthesized compounds. Amphotericin B deoxycholate and miltefosine, which were used as positive controls for the comparison of the antileishmanial activities of the test compounds, were also made in three-fold serial dilutions. All the prepared drugs were stored at − 20 °C and retrieved only during use.
# Prior to the in vitro antipromastigote testing, serial concentrations of the target compounds were prepared by implementing three-fold dilutions. Then, in a 96-well microtiter plate, 100 µl of each of the three-fold serial dilutions of the target compounds were added in triplicate wells. Then 100 µl of Leishmania donovani suspension containing 3.0 × 10^6 promastigotes per milliliter were added in duplicates. In this experiment, the media and DMSO served as a negative control. Moreover, the concentration of DMSO was maintained below 1% of the target compound preparation to avoid the potential growth inhibition and interference effect of DMSO in the entire antipromastigote assay. Properly labelled plates which belong to the negative-control group, positive-control groups (treated with miltefosine and amphotericin B deoxycholate) and target compounds were then kept in a humidified atmosphere at 22 ℃ under 5% CO2 […]. To determine the viability Leishmania donovani isolates after the respective treatment, 10 µL of fluorochrome AlamarBlue® solution prepared by dissolving 12.5 mg resazurin in 100 mL of distilled water was added to each well and incubated for 4 h. Then, the fluorescence intensity of each well was determined using Victor3 Multilabel Counter (PerkinElmer, Waltham, MA, USA), at 530 nm and 590 nm, excitation and emission wavelengths, respectively. The IC50 values of the negative-control, positive-control groups and test-groups were determined from sigmoidal dose-response curves using GraphPad Prism 5.0 software (GraphPad Software, Inc., San Diego, CA, USA).
# [2] = tested on: Plasmodium berghei ANKA strain; assay: four-day standard suppressive test in infected mice; format: in vivo, Plasmodium berghei (Swiss albino mice); settings: for inhibition in vivo at 48.46 µmol/kg: Plasmodium berghei, 96 h, read-out: % Suppression; for % Parasitemia: smear on 5th day, mean ± SD
# Excerpt: In the present study, the in vivo antimalarial activities of the synthesized compounds were investigated using a mouse model which is ideal to elucidate the prodrug effects of the target compounds triggered by metabolic activation and eradication of infection due to the potential involvement of the immune system. To achieve a steady state infection against the experimental animals, Plasmodium berghei ANKA strain served as a parasite in the experiment and the effects of the target compounds was assessed by the standard four-day suppressive test (often employed to evaluate early infections) in terms of percent inhibition of parasitemia which is recognized as most trustworthy parameter in vivo antimalarial studies. Herein, the standard antimalarial drug chloroquine phosphate (CQ) and equimolar amounts (48.46 µmol/Kg) of the target 3-aryl-2-styry substituted-4(3H)-quinazolinone derivatives were administered orally and the % suppression, parasitemia level, and the survival time of mice were compared against mice treated with a formulation containing a solution of 7% Tween 80, and 3% ethanol in distilled water (control group).
# Swiss albino male mice of weight 20–32 g and age 6–8 weeks were used for the antimalarial activity and acute toxicity tests. Plasmodium berghei ANKA strain is used to infect the mice for a four-day suppressive test, were obtained from Biomedical Laboratory, Department of Biology, Faculty of Science, AAU. Leishmania donovani isolate used in this study was obtained from the Leishmania Diagnosis and Research Laboratory (LDRL) culture bank, School of Medicine, AAU.
# The antimalarial activities of the target compounds were assessed by the four-day standard suppressive test against mice infected with Plasmodium berghei. The mice were acclimatized to the experimental conditions in the animal house of Biomedical Laboratory, Addis Ababa University, Faculty of Science, Department of Biology, for seven days prior to the in vivo antimalarial activity testing. In due course, the mice were subjected to live in standard cages with a pelleted diet and water. To trigger a steadily rising infection in mice, blood infected with Plasmodium berghei ANKA strain (approximately 20–30% level of parasitemia) was collected from a donor mice using a syringe supplemented with 0.5% trisodium citrate and diluted in physiological saline to […]. Then, 0.2 mL of inoculum (supposed to have about 2 × 10^7 parasites) was injected into each mouse through the intraperitoneal route to achieve the desired level of infection within a short period of time. After 2 h of post-infection, the mice were carefully weighed using a digital balance and randomly assigned into nine groups where each group contain five mice. Of which, mice assigned as a negative control (Group 1) subjected to the formulation composed of 7% Tween 80, and 3% ethanol in distilled water (2 mL/100 g). In addition, mice which belong to the positive control (Group 2) was treated with 25 mg/kg/day (0.04846 mmol/kg/day) of chloroquine phosphate (CQ). The remaining groups (3–9) were subjected to oral treatment with equimolar amounts of the respective target compounds for four consecutive days. Finally, a blood smear was taken from the tail of the mice in the 5th day (24 h after the last dose), air-dried, fixed with absolute methanol and treated with 6% Giemsa stain. The mean parasitemia level of each group (control and treatment groups) was computed microscopically by counting the number of erythrocytes in four fields (⁓100 erythrocytes per field).
# [3] = tested on: male Swiss albino mice; assay: in vivo oral acute toxicity test; settings: for mortality in mice: oral 50, 100, 200 and 300 mg/kg, within 24 h and entire study period (14 days); for visible signs of overt toxicity: oral up to 300 mg/kg, physical and behavioral observations, 14 days
# Procedure: For this purpose, the mice were randomly allocated into six groups each containing six mice. The first five groups of mice (Group 1–5) received each target compound solubilized using 1% gum acacia at a dose of 10, 50, 100, 200 and 300 mg/kg, respectively. The mice in last group (group 6, served as a negative control) were orally treated with the solvent used to dissolve the target compounds (1% gum acacia) at a maximum dose of 1 mL/100 gm of body weight. Each mouse was then monitored for gross changes such as salivation, loss of appetite, lacrimation, hair erection, diarrhea, convulsions, death, and other signs of overt toxicity.
# [4] = tested on: Leishmania major; parameters: method as in PMID 20235747; settings: cited from earlier work
# [5] = L. donovani promastigotes, 22 °C, AlamarBlue fluorescence, read-out: IC50 values, antipromastigote activity
# [6] = mice infected with P. berghei ANKA, oral, 48.46 µmol/kg for four days (CQ 25 mg/kg)
# [7] = po, mice infected with P. berghei ANKA, oral, 48.46 µmol/kg for four days (CQ 25 mg/kg), versus negative control
# [8] = L. donovani promastigotes, 22 °C, AlamarBlue fluorescence
# [9] = read-out: IC50 values, antipromastigote activity, L. donovani promastigotes, 22 °C, AlamarBlue fluorescence
Compound,"IC50 [1, 5]",inhibition in vivo at 48.46 µmol/kg [2],"% Parasitemia [2, 6]",mortality in mice [3],visible signs of overt toxicity [3],"inhibition in vivo at 48.46 µmol/kg [2, 7]","Mean survival time [2, 6]","IC50 values, antipromastigote activity [1, 8]","IC50 [1, 9]","IC50, in vitro antileishmanial activity [4]"
"C[C@@H]1[C@H](O)[C@@H](C)/C=C/C=C/C=C/C=C/C=C/C=C/C=C/[C@H](O[C@@H]2O[C@H](C)[C@@H](O)[C@H](N)[C@@H]2O)C[C@@H]2O[C@](O)(C[C@@H](O)C[C@@H](O)[C@H](O)CC[C@@H](O)C[C@@H](O)CC(=O)O[C@H]1C)C[C@H](O)[C@H]2C(=O)O [Amphotericin B, amphotericin B deoxycholate, reference compound]",0.046 ± 0.009 µg/mL,–,–,–,–,–,–,–,–,–
"CCN(CC)CCCC(C)Nc1ccnc2cc(Cl)ccc12 (stereo not drawn) [CQ, chloroquine phosphate, reference compound]",–,100%,0%,–,–,–,–,–,–,–
"O=c1c2ccccc2nc(/C=C/c2ccc([N+](=O)[O-])cc2)n1-c1ccccc1 [Compound 6, (E)-2-(4-nitrostyryl)-3-phenylquinazolin-4(3H)-one]",–,–,39.22 ± 0.7%,none of the compounds caused mortality,no visible signs of overt toxicity,< 50%,6.5 ± 0.3 days,0.021 ± 0.008 µg/mL,0.0212 µg/mL,–
"Cc1ccccc1-n1c(/C=C/c2ccc(Cl)cc2)nc2ccccc2c1=O [Compound 7, (E)-2-(4-chlorostyryl)-3-o-tolylquinazolin-4(3H)-one]",–,–,35.69 ± 0.69%,–,–,< 50%,6.9 ± 0.5 days,–,3.25 ± 0.282 µg/mL,–
"CC(=O)Oc1ccc(/C=C/c2nc3ccccc3c(=O)n2-c2ccccc2C)cc1 [Compound 8, 4-((1E)-2-(3,4-dihydro-4-oxo-3-o-tolylquinazolin-2-yl)vinyl)phenyl acetate]",–,–,19.57 ± 0.77%,none of the compounds caused mortality,no visible signs of overt toxicity,–,9.4 ± 0.37 days,–,3.33 ± 0.126 µg/mL,–
"COc1cc(/C=C/c2nc3ccccc3c(=O)n2-c2ccc(C)cc2)ccc1OC(C)=O [Compound 10, 4-((1E)-2-(3,4-dihydro-4-oxo-3-p-tolylquinazolin-2-yl)vinyl)-2-methoxyphenyl acetate]",0.196 ± 0.042 µg/mL,–,16.85 ± 0.39%,none of the compounds caused mortality,no visible signs of overt toxicity,–,9.8 ± 0.24 days,–,–,–
"Cc1ccccc1-n1c(/C=C/c2ccc(O)cc2)nc2ccccc2c1=O [Compound 11, (E)-2-(4-hydroxystyryl)-3-o-tolylquinazolin-4(3H)-one]",–,–,25.27 ± 0.76%,–,–,> 50%,7.3 ± 0.54 days,–,0.185 ± 0.026 µg/mL,–
"Cc1ccc(-n2c(/C=C/c3ccc(O)cc3)nc3ccccc3c2=O)cc1 [Compound 12, (E)-2-(4-hydroxystyryl)-3-p-tolylquinazolin-4(3H)-one]",–,–,32 ± 0.5%,–,–,> 50%,7.6 ± 1.12 days,–,1.84 ± 0.168 µg/mL,–
"COc1cc(/C=C/c2nc3ccccc3c(=O)n2-c2ccc(C)cc2)ccc1O [Compound 13, (E)-2-(4-hydroxy-3-methoxystyryl)-3-p-tolylquinazolin-4(3H)-one]",–,–,24.13 ± 0.29%,–,–,> 50%,7.9 ± 0.3 days,–,2.27 ± 0.214 µg/mL,–
O=c1c2ccccc2nc(-c2ccccc2)n1Cc1ccccc1 [III],–,–,–,–,–,–,–,–,–,48.91 µg/mL
"CCCCCCCCCCCCCCCCOP(=O)([O-])OCC[N+](C)(C)C [Miltefosine, hexadecylphosphocholine, reference compound]",3.19 µg/mL,–,–,–,–,–,–,3.191 ± 0.194 µg/mL,–,–

# — article PMC9716151, “Synthesis, antimalarial, antileishmanial evaluation, and molecular docking study of some 3-aryl-2-styryl substituted-4(3H)-quinazolinone derivatives” (BMC Chemistry, 2022)
